Laboratory results from patent US10125144B2, “Rho kinase inhibitors” (Kadmon Corporation, LLC, priority 2013, dated 2018).
Residue numbers refer to the chain shown, from its start. Where “and” joins values, the source holds several entries; their conditions need not be identical. Equal entries are not always repeated. Entries after “also recorded” stand apart in the source; their conditions may differ. Where two headings read alike, the source gives them in different places. One block for each molecule: values may come before it.

Tests used:
[1] = tested on: experimental autoimmune encephalomyelitis (EAE); experiment: experimental autoimmune encephalomyelitis (EAE) in mice; type: in vivo; details: C57BL/6 mice, MOG35-55 in CFA, 150 mg/kg QD or BID
CD4+ human T cells = experiment: cytokine secretion by CD4+ human T cells stimulated with anti-CD3/CD28; type: cell-based
Excerpt: Activation of resting T cells, resulting in cytokine secretion and proliferation, involves two distinct signals from antigen-presenting cells (APCs), mimicked by co-stimulation of the T cell receptor (TCR)/CD3 complex and the CD28 receptor. […] Under the same conditions, the inhibition of IFN-γ and IL-2 was not observed (FIG. 2).

ROCK1 = ROCK1 (Homo sapiens (Human), UniProt Q13464); experiment: Invitrogen Z'-LYTE kinase assay, ROCK1 inhibition; type: biochemical; details: 5 uM ATP
Excerpt: (§1) Dose response curves for Rho-kinase inhibition were derived from a Invitrogen Z′-LYTE™ Kinase Assay Kit (Invitrogen catalog number PV3793). Purified active ROCK1 and ROCK2 were obtained from Invitrogen (catalog numbers ROCK1, PV3691 and ROCK2, PV3759). The kit components include a coumarin and fluorescein labeled peptide based on myosin light chain 2 ([sequence]), a proprietary protease containing development reagent and a proprietary Stop buffer used to terminate the development reaction. The inhibitory activities of compounds are measured according to the manufactures protocol. Briefly, decreasing concentrations of test compounds or the known ROCK inhibitor Y-27963, are added, from 10 uM to 2.56×10^−5 uM to reaction buffer containing 50 mM HEPES pH 7.5, 10 mM MgCl2, 5 mM EGTA, and 0.05% Brij-35 and of ROCK1 at 0.18 ug/mL or ROCK2 at 0.8 ug/mL in assay dilution buffer. This mixture is overlayed into a white 96-well half area plate and the reaction is initiated with the addition of 5 uM ATP for ROCK1 or 12 uM ATP for ROCK2. The assay proceeds at room temperature for 1 hour followed by the addition of development reagent, and further incubation for 1 hour at room temperature. STOP reagent is then added and the reaction and immediately the coumarin and fluorescein emission signals are read on a Tecan Infinite M1000 fluorescence plate reader (excitation: 400 nm; emission 445 and 520 nm, respectively). By comparing the emission ratios of the test samples against control samples, percent phosphorylation values are calculated and the concentration of inhibitor that produces ½ inhibition of kinase activity (IC50) is determined using Prism.

ROCK2 = ROCK2 (Homo sapiens (Human), UniProt O75116); experiment: Invitrogen Z'-LYTE kinase assay, ROCK2 inhibition; type: biochemical; details: ROCK2 0.8 ug/mL, 12 uM ATP
Excerpt: as §1

human VEGFR2 [2] = target: T1, human VEGFR2 (Homo sapiens (Human), UniProt P35968); experiment: Biacore analysis of binding to human VEGFR2; details: human antigen
murine VEGFR2 [3] = target: T2, murine VEGFR2 (Mus musculus (Mouse), UniProt P35918); experiment: ELISA receptor binding, mVEGFR2
[4] = tested on: phosphorylation of KDR and p44/42 in HUVEC; experiment: VEGFR2-mediated signal transduction in HUVEC; type: cell-based, human
rat VEGFR2 = rat VEGFR2 (Rattus norvegicus (Rat), UniProt O08775); experiment: Biacore analysis of binding to rat VEGFR2; details: rat antigen
Experimental: The binding constants of Mab 147 and Mab 149 as well as the parent Mab 160 for human, murine, and rat VEGFR2 were determined by Biacore analysis (Table 4).

[5] = target: human VEGFR2 on HUVEC and KDR-PAE cells (Homo sapiens (Human), UniProt P35968); experiment: binding to hVEGFR2 on HUVEC and KDR-PAE cells; type: cell-based
Excerpt: Binding of Mab 147 to hVEGFR2 and mVEGFR2 expressed on cell membranes was also confirmed. […] Mab 147 also bound to mVEGFR expressed by MS1 murine endothelial cells (FIG. 8B).

KDR-PAE cells [6] = experiment: VEGF-induced migration of KDR-PAE cells; type: cell-based, porcine; details: VEGF gradient
Experimental: Migration of KDR-PAE cells was induced with a VEGF gradient (50 ng/ml VEGF (up), 100 ng/ml VEGF (low)).

KDR-PAE cells [7] = experiment: proliferation of KDR-PAE cells; type: cell-based, porcine
[8] = target: binding of human VEGF with human VEGFR2 (Homo sapiens (Human), UniProt P35968); experiment: ELISA ligand blocking, human VEGF / human VEGFR2
[9] = target: binding of murine VEGF with murine VEGFR2 (Mus musculus (Mouse), UniProt P35918); experiment: ELISA ligand blocking, murine VEGF / murine VEGFR2
murine VEGFR2 [10] = target: T2, murine VEGFR2; experiment: Biacore analysis of binding to murine VEGFR2; details: murine antigen
[11] = target: VEGFR2 on MS1 murine endothelial cells (Mus musculus (Mouse), UniProt P35918); experiment: binding to VEGFR2 on MS1 murine endothelial cells; type: cell-based
human VEGFR2 [12] = target: T1, human VEGFR2; experiment: ELISA receptor binding, hVEGFR2
[13] = tested on: phosphorylation of KDR and p44/42 in KDR-PAE cells; experiment: VEGFR2-mediated signal transduction in KDR-PAE cells; type: cell-based, porcine

T2 sequence (P35918 20-1345): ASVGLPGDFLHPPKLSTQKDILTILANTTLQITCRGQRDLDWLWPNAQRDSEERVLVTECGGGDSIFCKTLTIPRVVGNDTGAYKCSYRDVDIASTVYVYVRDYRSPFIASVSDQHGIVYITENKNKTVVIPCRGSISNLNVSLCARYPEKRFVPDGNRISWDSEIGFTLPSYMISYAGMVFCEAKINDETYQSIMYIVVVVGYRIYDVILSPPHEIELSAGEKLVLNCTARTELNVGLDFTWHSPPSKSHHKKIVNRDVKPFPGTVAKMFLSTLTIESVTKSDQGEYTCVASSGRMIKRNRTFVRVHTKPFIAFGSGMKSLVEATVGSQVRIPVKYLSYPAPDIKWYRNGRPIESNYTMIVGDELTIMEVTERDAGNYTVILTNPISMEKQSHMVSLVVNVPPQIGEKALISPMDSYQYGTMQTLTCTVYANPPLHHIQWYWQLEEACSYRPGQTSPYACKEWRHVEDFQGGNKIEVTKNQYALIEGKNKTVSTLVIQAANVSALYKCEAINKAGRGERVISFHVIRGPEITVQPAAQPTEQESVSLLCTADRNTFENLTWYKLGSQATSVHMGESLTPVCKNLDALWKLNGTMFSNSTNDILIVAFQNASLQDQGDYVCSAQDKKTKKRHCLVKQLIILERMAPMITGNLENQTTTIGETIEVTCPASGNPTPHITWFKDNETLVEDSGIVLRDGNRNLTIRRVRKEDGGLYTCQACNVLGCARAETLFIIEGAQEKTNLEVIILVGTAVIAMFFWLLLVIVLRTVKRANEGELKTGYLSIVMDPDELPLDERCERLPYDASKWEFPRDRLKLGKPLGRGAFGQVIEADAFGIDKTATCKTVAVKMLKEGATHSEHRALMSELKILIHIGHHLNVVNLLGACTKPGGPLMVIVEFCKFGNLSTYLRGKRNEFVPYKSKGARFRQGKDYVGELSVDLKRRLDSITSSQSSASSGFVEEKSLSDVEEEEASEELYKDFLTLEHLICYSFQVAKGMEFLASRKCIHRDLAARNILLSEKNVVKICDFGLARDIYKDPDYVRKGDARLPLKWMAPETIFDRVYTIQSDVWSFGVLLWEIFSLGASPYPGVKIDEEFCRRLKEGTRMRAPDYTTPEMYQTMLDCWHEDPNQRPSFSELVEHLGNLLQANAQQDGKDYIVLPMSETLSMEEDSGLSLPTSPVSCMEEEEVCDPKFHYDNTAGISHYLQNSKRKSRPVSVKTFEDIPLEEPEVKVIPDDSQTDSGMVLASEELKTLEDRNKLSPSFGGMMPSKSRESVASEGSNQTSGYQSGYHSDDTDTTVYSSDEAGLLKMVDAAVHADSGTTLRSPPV
T1 sequence (P35968 20-1356): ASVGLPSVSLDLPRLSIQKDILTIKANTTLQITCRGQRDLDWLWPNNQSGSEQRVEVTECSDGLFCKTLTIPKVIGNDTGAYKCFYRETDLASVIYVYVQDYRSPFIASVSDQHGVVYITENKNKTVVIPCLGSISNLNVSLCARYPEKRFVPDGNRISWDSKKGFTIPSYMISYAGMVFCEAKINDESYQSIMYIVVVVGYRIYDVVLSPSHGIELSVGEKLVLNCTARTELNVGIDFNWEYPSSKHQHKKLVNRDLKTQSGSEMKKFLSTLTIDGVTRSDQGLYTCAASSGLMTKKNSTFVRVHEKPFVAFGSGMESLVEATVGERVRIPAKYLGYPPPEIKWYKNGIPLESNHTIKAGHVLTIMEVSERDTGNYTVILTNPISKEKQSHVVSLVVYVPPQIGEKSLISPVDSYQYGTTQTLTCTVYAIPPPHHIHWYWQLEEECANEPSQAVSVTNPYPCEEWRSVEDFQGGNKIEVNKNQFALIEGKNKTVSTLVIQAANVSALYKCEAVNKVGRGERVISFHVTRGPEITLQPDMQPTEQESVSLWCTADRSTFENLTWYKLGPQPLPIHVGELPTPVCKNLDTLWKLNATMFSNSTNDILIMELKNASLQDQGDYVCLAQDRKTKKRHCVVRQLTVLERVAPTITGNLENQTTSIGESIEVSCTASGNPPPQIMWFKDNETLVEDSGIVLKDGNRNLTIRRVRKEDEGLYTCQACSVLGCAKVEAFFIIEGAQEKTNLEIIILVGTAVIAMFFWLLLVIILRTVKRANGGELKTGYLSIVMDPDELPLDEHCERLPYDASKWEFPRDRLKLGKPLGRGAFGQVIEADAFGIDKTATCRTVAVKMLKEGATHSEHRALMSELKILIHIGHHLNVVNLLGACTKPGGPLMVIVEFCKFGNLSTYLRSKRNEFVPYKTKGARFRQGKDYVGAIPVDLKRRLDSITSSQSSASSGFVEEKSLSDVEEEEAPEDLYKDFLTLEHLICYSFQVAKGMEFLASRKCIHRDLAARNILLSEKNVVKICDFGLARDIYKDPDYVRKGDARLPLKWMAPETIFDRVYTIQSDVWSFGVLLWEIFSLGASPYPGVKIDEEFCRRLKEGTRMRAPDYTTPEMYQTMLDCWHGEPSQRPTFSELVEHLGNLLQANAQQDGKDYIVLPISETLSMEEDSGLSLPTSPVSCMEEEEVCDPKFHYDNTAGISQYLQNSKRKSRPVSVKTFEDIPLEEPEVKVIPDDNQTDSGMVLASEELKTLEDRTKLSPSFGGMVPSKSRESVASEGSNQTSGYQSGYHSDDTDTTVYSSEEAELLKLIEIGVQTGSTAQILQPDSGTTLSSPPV
Sequence of ROCK2 (O75116 whole entry): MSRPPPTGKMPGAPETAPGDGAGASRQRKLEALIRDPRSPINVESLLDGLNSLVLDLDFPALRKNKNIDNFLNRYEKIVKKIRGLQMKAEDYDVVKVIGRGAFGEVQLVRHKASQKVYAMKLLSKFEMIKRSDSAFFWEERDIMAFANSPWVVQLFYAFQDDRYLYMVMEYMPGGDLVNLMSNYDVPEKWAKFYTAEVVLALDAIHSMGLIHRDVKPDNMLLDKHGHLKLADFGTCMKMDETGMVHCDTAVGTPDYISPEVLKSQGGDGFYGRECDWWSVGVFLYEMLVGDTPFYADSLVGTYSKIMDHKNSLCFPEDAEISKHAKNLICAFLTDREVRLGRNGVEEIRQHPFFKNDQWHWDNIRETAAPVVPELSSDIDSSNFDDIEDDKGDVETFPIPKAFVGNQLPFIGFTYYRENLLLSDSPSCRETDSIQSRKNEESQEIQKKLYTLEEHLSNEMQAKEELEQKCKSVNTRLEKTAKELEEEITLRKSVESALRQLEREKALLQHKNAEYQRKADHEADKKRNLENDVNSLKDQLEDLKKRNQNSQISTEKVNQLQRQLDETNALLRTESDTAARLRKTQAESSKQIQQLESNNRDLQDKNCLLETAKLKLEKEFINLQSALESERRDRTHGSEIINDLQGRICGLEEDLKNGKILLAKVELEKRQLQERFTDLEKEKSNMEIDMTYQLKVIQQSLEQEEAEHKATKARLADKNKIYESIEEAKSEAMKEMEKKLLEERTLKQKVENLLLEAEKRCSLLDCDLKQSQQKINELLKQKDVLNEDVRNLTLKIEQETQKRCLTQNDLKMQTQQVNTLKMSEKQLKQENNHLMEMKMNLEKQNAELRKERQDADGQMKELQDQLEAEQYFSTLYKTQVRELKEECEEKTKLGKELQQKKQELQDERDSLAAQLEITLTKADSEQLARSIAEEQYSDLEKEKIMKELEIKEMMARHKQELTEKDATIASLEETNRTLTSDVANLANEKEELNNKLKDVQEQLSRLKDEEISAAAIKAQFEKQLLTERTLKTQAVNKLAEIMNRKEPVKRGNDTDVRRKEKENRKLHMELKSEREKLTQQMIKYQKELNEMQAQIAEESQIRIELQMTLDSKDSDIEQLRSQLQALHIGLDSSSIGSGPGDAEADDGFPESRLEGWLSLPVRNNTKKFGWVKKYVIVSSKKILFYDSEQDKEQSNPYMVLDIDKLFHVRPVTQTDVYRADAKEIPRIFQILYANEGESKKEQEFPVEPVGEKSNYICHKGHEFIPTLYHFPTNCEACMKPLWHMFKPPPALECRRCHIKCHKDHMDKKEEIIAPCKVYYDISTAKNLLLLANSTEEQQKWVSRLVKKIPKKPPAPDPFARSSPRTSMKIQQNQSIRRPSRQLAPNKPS
Sequence of VEGFR2 on MS1 murine endothelial cells (P35918 20-1345): as the sequence (P35918 20-1345) above
Sequence of binding of human VEGF with human VEGFR2 (P35968 20-764): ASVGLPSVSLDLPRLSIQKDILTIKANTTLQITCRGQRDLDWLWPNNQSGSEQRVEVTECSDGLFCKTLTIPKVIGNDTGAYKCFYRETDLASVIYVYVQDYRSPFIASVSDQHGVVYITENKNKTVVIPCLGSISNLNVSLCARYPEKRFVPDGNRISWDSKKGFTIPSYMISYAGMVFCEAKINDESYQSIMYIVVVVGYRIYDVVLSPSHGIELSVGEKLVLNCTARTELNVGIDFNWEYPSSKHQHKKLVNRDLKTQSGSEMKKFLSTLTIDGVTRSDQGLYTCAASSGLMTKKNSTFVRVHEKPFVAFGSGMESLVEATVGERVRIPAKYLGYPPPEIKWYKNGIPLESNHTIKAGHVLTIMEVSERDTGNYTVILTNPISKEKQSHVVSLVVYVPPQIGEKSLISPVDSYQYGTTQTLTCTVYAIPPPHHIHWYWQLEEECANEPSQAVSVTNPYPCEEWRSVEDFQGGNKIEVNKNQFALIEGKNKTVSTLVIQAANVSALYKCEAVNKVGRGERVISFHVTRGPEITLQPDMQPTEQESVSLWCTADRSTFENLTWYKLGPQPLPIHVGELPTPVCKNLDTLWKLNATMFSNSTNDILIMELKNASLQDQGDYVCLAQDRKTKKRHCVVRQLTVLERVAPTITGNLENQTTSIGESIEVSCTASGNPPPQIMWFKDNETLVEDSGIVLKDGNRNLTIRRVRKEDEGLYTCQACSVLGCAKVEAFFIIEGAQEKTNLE
Sequence of human VEGFR2 on HUVEC and KDR-PAE cells (P35968 20-1356): as the sequence (P35968 20-1356) above

Molecule: COc1ccc2c(c1)CN(c1nccc(Nc3ccc4[nH]ncc4c3)n1)C2 [Example 1, N-(2-(5-Methoxyisoindolin-2-yl)pyrimidin-4-yl)-1H-indazol-5-amine]
EAE paralysis / mean clinical score [1]: reduces paralysis | EAE paralysis / mean clinical score ([1]; listed as compound 1): substantial improvement | IFN-γ secretion (CD4+ human T cells): not observed | IL-2 secretion (CD4+ human T cells): not observed | IL-17 secretion (CD4+ human T cells): dose-dependent; also recorded: significantly inhibited | IL-21 secretion (CD4+ human T cells): inhibits; also recorded: significantly inhibited

Molecule: COc1ccc2c(c1)CN(c1ccnc(Nc3ccc4[nH]ncc4c3)n1)C2 [Example 8, N-(4-(5-Methoxyisoindolin-2-yl)pyrimidin-2-yl)-1H-indazol-5-amine]
IC50 (ROCK1): > 10 µM

Molecule: c1cc(Nc2ccc3[nH]ncc3c2)nc(N2CCc3sccc3C2)n1 [Example 12, N-(2-(6,7-Dihydrothieno[3,2-c]pyridin-5(4H)-yl)pyrimidin-4-yl)-1H-indazol-5-amine]
IC50 (ROCK1): > 10 µM

Molecule: COc1ccc2c(c1)CN(c1cc(Nc3ccc4[nH]ncc4c3)ncn1)C2 [Example 13, N-(6-(5-Methoxyisoindolin-2-yl)pyrimidin-4-yl)-1H-indazol-5-amine]
IC50 (ROCK1): > 10 µM

Molecule: COc1ccc2c(c1)CN(c1cc(Nc3ccc4[nH]ncc4c3)nc(C)n1)C2 [Example 14, N-(6-(5-Methoxyisoindolin-2-yl)-2-methylpyrimidin-4-yl)-1H-indazol-5-amine]
IC50 (ROCK1): > 10 µM | IC50 (ROCK2): 0.13 to 0.18 µM

Molecule: c1cc2c(cn1)CN(c1nccc(Nc3ccc4[nH]ncc4c3)n1)C2 [Example 15, N-(2-(1H-Pyrrolo[3,4-c]pyridin-2(3H)-yl)pyrimidin-4-yl)-1H-indazol-5-amine]
IC50 (ROCK1): > 10 µM

Molecule: COc1ccc2c(c1)CN(c1nc(C)c(C)c(Nc3ccc4[nH]ncc4c3)n1)C2 [Example 16, N-(2-(5-Methoxyisoindolin-2-yl)-5,6-dimethylpyrimidin-4-yl)-1H-indazol-5-amine]
IC50 (ROCK2): > 0.01 µM

Molecule: c1ccc2c(c1)CN(c1nc3c(c(Nc4ccc5[nH]ncc5c4)n1)COC3)C2 [Example 17, N-(1H-Indazol-5-yl)-2-(isoindolin-2-yl)-5,7-dihydrofuro[3,4-d]pyrimidin-4-amine]
IC50 (ROCK1): > 10 µM

Molecule: COc1ccc2c(c1)CN(c1nccc(Nc3ccncc3)n1)C2 [Example 19, 2-(5-Methoxyisoindolin-2-yl)-N-(pyridin-4-yl)pyrimidin-4-amine]
IC50 (ROCK1): > 10 µM | IC50 (ROCK2): > 10 µM

Molecule: COc1ccc2c(c1)CN(c1nccc(Nc3ccc(-c4ccncc4)cc3)n1)C2 [Example 20, 2-(5-Methoxyisoindolin-2-yl)-N-(4-(pyridin-4-yl)phenyl)pyrimidin-4-amine]
IC50 (ROCK1): > 10 µM

Molecule: COc1ccc2c(c1)CN(c1nc3c(c(Nc4ccc5[nH]ncc5c4)n1)CNC3)C2 [Example 22, N-(1H-Indazol-5-yl)-2-(5-methoxyisoindolin-2-yl)-6,7-dihydro-5H-pyrrolo[3,4-d]pyrimidin-4-amine]
IC50 (ROCK2): 24.3 µM and 24 µM

Molecule: COc1ccc2c(c1)CN(c1nc3c(c(Nc4ccc5[nH]ncc5c4)n1)CCNC3)C2 [Example 24, N-(1H-Indazol-5-yl)-2-(5-methoxyisoindolin-2-yl)-5,6,7,8-tetrahydropyrido[3,4-d]pyrimidin-4-amine]
IC50 (ROCK1): 2.5 µM

Molecule: COc1ccc2c(c1)CN(c1nc3c(c(Nc4ccc5[nH]ncc5c4)n1)CCN(C)C3)C2 [Example 25, N-(1H-Indazol-5-yl)-2-(5-methoxyisoindolin-2-yl)-7-methyl-5,6,7,8-tetrahydropyrido[3,4-d]pyrimidin-4-amine]
IC50 (ROCK1): > 10 µM | IC50 (ROCK2): 0.13 µM

Molecule: N#Cc1ccc2c(c1)CN(c1nccc(Nc3ccc4[nH]ncc4c3)n1)C2 [Example 26, 2-(4-((1H-Indazol-5-yl)amino)pyrimidin-2-yl)isoindoline-5-carbonitrile]
IC50 (ROCK1): > 10 µM | IC50 (ROCK2): 0.123 µM

Molecule: Fc1ccc2c(c1)CN(c1nc3c(c(Nc4ccc5[nH]ncc5c4)n1)COC3)C2 [Example 30, 2-(5-Fluoroisoindolin-2-yl)-N-(1H-indazol-5-yl)-5,7-dihydrofuro[3,4-d]pyrimidin-4-amine]
IC50 (ROCK1): > 10 µM

B2: Mab 149: affinity matured anti-VEGFR2 antibody derived from Mab 138; VH SEQ ID NO:216, VL SEQ ID NO:220 (antibody, V domains shown)
VH: EVQLLESGGGLVQPGGSLRLSCAASGFTFSWYVMGWVRQAPGKGLEWVSSIYPSGGATNYADSVKGRFTISRDNSKNTLYLQMNSLRAEDTAVYYCARGNYLDYWGQGTLVTVSS
VL: DIQMTQSPGTLSLSPGEGATLSCRASQSVSSNYFGWYQQKPGQAPRLLIYGASSRATGIPDRFSGSGSGTDFTLTISRLEPEDSAVYYCQQFDSSPLSFGGGTKVEIKR
modifications: Mutated library sequence
ka (human VEGFR2 [2]): 8.62E+04 | kd (human VEGFR2 [2]): 6.59E−04 | ka (rat VEGFR2): 3.32E+04 | kd (rat VEGFR2): 1.43E−03 | ka (murine VEGFR2 [10]): 2.29E+04 | kd (murine VEGFR2 [10]): 1.81E−03

The next lines start with results.

IC50 (ROCK1): > 10 µM
Molecule: c1ccc2c(c1)CN(c1nccc(Nc3ccc4[nH]ncc4c3)n1)C2 [Example 2, N-(2-(Isoindolin-2-yl)pyrimidin-4-yl)-1H-indazol-5-amine]

IC50 (ROCK1): > 10 µM
Molecule: Clc1ccc2c(c1)CN(c1nccc(Nc3ccc4[nH]ncc4c3)n1)C2 [Example 10, N-(2-(5-Chloroisoindolin-2-yl)pyrimidin-4-yl)-1H-indazol-5-amine]

IC50 (ROCK1): > 10 µM
Molecule: COc1ccc2c(c1)CCN(c1nccc(Nc3ccc4[nH]ncc4c3)n1)C2 [Example 11, N-(2-(6-Methoxy-3,4-dihydroisoquinolin-2(1H)-yl)pyrimidin-4-yl)-1H-indazol-5-amine]

IC50 (ROCK1): > 10 µM | IC50 (ROCK2): 0.185 µM
Molecule: COc1ccc2c(c1)CN(c1nc3c(c(Nc4ccc5[nH]ncc5c4)n1)COCC3)C2 [Example 21, N-(1H-Indazol-5-yl)-2-(5-methoxyisoindolin-2-yl)-7,8-dihydro-5H-pyrano[4,3-d]pyrimidin-4-amine]

IC50 (ROCK1): 6.73 µM | IC50 (ROCK2): 0.1 µM
Molecule: COCc1ccc2c(c1)CN(c1nccc(Nc3ccc4[nH]ncc4c3)n1)C2 [Example 27, N-(2-(5-(Methoxymethyl)isoindolin-2-yl)pyrimidin-4-yl)-1H-indazol-5-amine]

IC50 (ROCK2): 0.88 µM
Molecule: Fc1cccc2c1CN(c1nccc(Nc3ccc4[nH]ncc4c3)n1)C2 [Example 29, N-(2-(4-Fluoroisoindolin-2-yl)pyrimidin-4-yl)-1H-indazol-5-amine]

IC50 (ROCK1): > 10 µM | IC50 (ROCK2): 0.607 µM
Molecule: COc1nc(N2Cc3ccccc3C2)nc(Nc2ccc3[nH]ncc3c2)c1OC [Example 32, N-(2-(Isoindolin-2-yl)-5,6-dimethoxypyrimidin-4-yl)-1H-indazol-5-amine]

ka (human VEGFR2 [2]): 1.13E+05 | kd (human VEGFR2 [2]): 2.82E−04 | ka (rat VEGFR2): 6.45E+04 | kd (rat VEGFR2): 8.99E−04 | binding to hVEGFR2 expressed on cell membranes [5]: confirmed | blocking of binding of human VEGF with human VEGFR2 [8]: blocks ligand binding | blocking of binding of murine VEGF with murine VEGFR2 [9]: blocks ligand binding | ka (murine VEGFR2 [10]): 4.38E+04 | kd (murine VEGFR2 [10]): 1.28E−03 | binding to VEGFR2 on MS1 murine endothelial cells [11]: binds; also recorded: bound
B1: Mab 147: affinity matured anti-VEGFR2 antibody derived from Mab 138; VH SEQ ID NO:200, VL SEQ ID NO:204 (antibody, V domains shown)
VH: B2 VH with S54Q, N59S, L102F
VL: B2 VL with S95L, S98T
modifications: Mutation of library member
binding to murine VEGFR2 (murine VEGFR2 [3]): binds to both hVEGFR2 and mVEGFR2 with similar affinity | phosphorylation of KDR and p44/42 [4]: inhibit | phosphorylation of KDR and p44/42 ([4]; listed as Mab-147): reduced phosphorylation | VEGF-induced migration of KDR-PAE cells (KDR-PAE cells [6]): inhibiting | proliferation of KDR-PAE cells (KDR-PAE cells [7]): inhibit | binding to human VEGFR2 (human VEGFR2 [12]): binds to both hVEGFR2 and mVEGFR2 with similar affinity | phosphorylation of KDR and p44/42 [13]: inhibit | phosphorylation of KDR and p44/42 ([13]; listed as Mab-147): reduced phosphorylation
